Measured values reported in publication PMC8160450, “GRK Inhibition Potentiates Glucagon-Like Peptide-1 Action” (Frontiers in Endocrinology, 2021).
No end group written: not given here.

What was measured:
Type in all cases: cell-based
[1] = tested on: β-arrestin recruitment to the GLP-1R; experiment: GLP-1 mediated β-arrestin recruitment assay (PathHunter eXpress GLP1R CHO-K1 β-Arrestin cells); conditions: CHO-K1 cells stably expressing human GLP-1 receptor and β-arrestin
Description: PathHunter® eXpress GLP1R CHO-K1 β-Arrestin cells were plated at 6000 cells/well in a 384-well, PDL, white and opaque plate in F12 medium containing 10% FBS, 0.3 mg/ml hygromycin, and 0.8 mg/ml G418. The plate was incubated for two days in a humidified incubator at 37°C and 5% CO2 prior to the experiment. On the day of the exeperiment, the cells were washed once with the Assay Buffer (HBSS with calcium and magnesium, 20 mM Hepes, and 0.1% fatty-acid free BSA) followed by a 10 minute preincubation with GRK inhibitors or vehicle (DMSO) at the indicated concentrations. The final DMSO concentration was 0.1%. GLP-1 was added to the indicated concentrations, and incubation was continued for an additional 90 minutes at 37°C. The detection reagent was then added the cells, followed by a 60 minute incubation at the room temperature. The plate was read on MicroBeta LumiJet (PerkinElmer, Waltham, MA). In this cellular system, the GLP-1 receptor is fused in frame with the small enzyme fragment of ProLinkTM and co-expressed in cells expressing a fusion of the larger deletion mutant of β-gal, also called enzyme acceptor. […] The cellular β-gal enzyme activity is measured using chemiluminescent detection reagents.

[2] = tested on: INS-1 832/13 cells; experiment: GLP-1 mediated insulin secretion in INS-1 832/13 cells; conditions: GLP-1 at 10 nM, 5 mM glucose
Description: INS-1 832/13 cells were cultured in medium composed of RPMI 1640 medium supplemented with 10% fetal bovine serum, 50 IU/mL penicillin, 50 mg/L streptomycin, 10 mM HEPES, 2 mM L-glutamine, 1 mM sodium pyruvate, and 50 µM beta-mercaptoethanol. Cells were split twice a week, grown in a 37°C incubator under a humidified atmosphere containing 5% CO2 and plated at (60,000 cells/well) in a 96-well plate, two days prior to the experiment. Cells were washed twice with glucose-free Krebs-Ringer Bicarbonate buffer (KRB) (116 mM NaCl, 1.8 mM CaCl2, 0.8 mM MgSO4, 5.4 mM KCl, 1 mM NaH2PO4, 26 mM NaHCO3, and 0.2% fatty-acid free BSA, pH 7.4) followed by preincubation for 1 h at 37°C in glucose-free KRB and the indicated concentration of GRK compounds or vehicle (DMSO) were added. The final DMSO concentration was 0.1%. After 30 min incubation at 37°C, 2 mM or 5 mM glucose and 10 nM GLP-1 were added to the wells for a final volume of 200 μL. After further incubation for 1 hour at 37°C, 20 μL of the culture supernatant was diluted 1:15 in the Dilution Buffer provided in the Insulin High Range Assay HTRF Kit (Cisbio, Bedford, MA). Insulin was detected using the Insulin High Range Assay HTRF Kit according to the manufacturer’s instructions (Cisbio, Bedford, MA). All results were obtained in 5 replicates.

[3] = tested on: mouse pancreatic islets; experiment: Glucose stimulated insulin secretion (GSIS) in isolated mouse pancreatic islets; conditions: 20 nM GLP-1, 2 mM glucose
Description: Islets were isolated from mouse pancreas by collagenase digestion ([20]). The collagenase was dissolved in Hanks’ balanced salt solution (Invitrogen, Carlsbad, CA) containing 10 µg/ml DNase I (Roche Diagnostics, Indianapolis, IN) and 0.2% BSA, and was subsequently injected into the common bile duct. The pancreas was removed and incubated at 37°C for 20 min and washed three times with Hanks’ balanced salt solution and islets were collected under a microscope. Purified islets were used after an overnight incubation in RPMI 1640 medium containing 5.5 mmol/l glucose and 10% fetal bovine serum in a humidified atmosphere containing 5% CO2/95% air at 37°C. A group of 7 islets was preincubated in Krebs Ringer bicarbonate buffer (KRBH) containing 0.2% BSA and 2 mM glucose for 40 min at 37°C. The indicated concentration of GRK compounds or vehicle (DMSO) were added. The final DMSO concentration was 0.1%. After 30 min incubation at 37°C, 2 mM or 10 mM glucose along with 20 nM GLP-1 were added to wells. After further incubation for 1 hour at 37°C with shaking, culture supernatant was collected, and insulin was detected using the Insulin High Range Assay HTRF Kit according to the manufacturer’s instructions (Cisbio, Bedford, MA).

Human GLP-1 (7-36) amide (HAEGTFTSDVSSYLEGQAAKEFIAWLVKGR-NH2; UniProt P01275 98-127, looked up, fragment)
EC80 for increase of cellular β-gal enzyme activity (β-arrestin recruitment) [1]: approximately 100 nM | insulin secretion [2]: stimulated insulin secretion | insulin secretion at 2 mM glucose, GLP-1 alone [3]: did not stimulate insulin secretion
